pIC50: −log10 of the molar value. Values joined by “and” are separate entries in the source; they are usually repeats but may differ in a detail not shown here. Equal entries are not always repeated. No end group written: not given here.
Tests used:
[1] = molecular target: HLA-A1 (A*0101) (Homo sapiens, UniProt P04439, A114D/A174V/A182V/D101N/D185E/E176A/E190D/L180R/Q94H/R68K/S129P/T187R/V100A/V91M/W191G); assay: biochemical; assay type: binding
[2] = molecular target: A*2601 (Homo sapiens, UniProt P04439, A114D/A173T/A270S/D101N/D185E/E277Q/E87N/F33Y/G231S/I121R/I218V/K168Q/L180W/L300P/L318F/P208A/P217A/Q86R/Q94H/R138Q/S129P/T187R/T323A/T345S/V100A/V358M); assay: biochemical; assay type: binding
[3] = molecular target: A*2902 (Homo sapiens, UniProt P04439, A270S/D101N/D185E/E176V/E277Q/E87Q/F33T/G231S/H175R/I121M/I218V/I322F/K168Q/L300P/L318F/M331R/P208A/P217A/Q86L/T323A/T345S/V100A/V358M); assay: biochemical; assay type: binding
[4] = molecular target: A*3002 (Homo sapiens, UniProt P04439, D101N/D140H/D185E/E176R/F33S/G80R/H175R/K168Q/Q94H/R138E/R41S/V100E); assay: biochemical; assay type: binding
Chain of A*3002 (P04439 whole entry, looked up, the tested form may be a part, stated change not applied): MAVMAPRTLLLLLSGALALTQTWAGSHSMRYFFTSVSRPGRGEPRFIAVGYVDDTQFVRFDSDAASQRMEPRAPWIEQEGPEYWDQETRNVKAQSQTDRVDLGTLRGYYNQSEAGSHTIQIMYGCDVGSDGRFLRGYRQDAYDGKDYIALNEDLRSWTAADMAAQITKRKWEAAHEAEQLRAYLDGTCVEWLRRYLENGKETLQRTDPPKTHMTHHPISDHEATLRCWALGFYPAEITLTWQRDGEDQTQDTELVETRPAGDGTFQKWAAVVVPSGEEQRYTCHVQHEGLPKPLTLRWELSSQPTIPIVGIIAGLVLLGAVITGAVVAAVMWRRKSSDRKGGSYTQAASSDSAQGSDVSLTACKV

[5] = molecular target: HLA-A*0201 (HLA-A2.1) (Homo sapiens, UniProt P04439, D140Y/D185E/D98H/E176V/E277Q/G131W/G231S/I119V/I121R/I166T/I218V/L300P/L318F/N151K/N90K/P208A/P217A/Q86G/Q94H/R138H/R169H/T345S); assay: biochemical; assay type: binding
[6] = tested on: HLA-A24; assay type: binding, human
[7] = molecular target: A2.1 HLA molecules (Homo sapiens, UniProt P04439, D140Y/D185E/D98H/E176V/E277Q/G131W/G231S/I119V/I121R/I166T/I218V/L300P/L318F/N151K/N90K/P208A/P217A/Q86G/Q94H/R138H/R169H/T345S); assay type: binding; parameters: A*0201 / A2.1 Binding / A2 Bind. / A2 / A2.1 (binding capacity): scale not given here

CC[C@H](C)[C@H](N)C(=O)N[C@H](C(=O)N[C@@H](CCC(=O)O)C(=O)N[C@@H](CCCCN)C(=O)N[C@@H](CC(N)=O)C(=O)N[C@@H](CO)C(=O)NCC(=O)N[C@@H](CC(C)C)C(=O)N[C@@H](Cc1ccc(O)cc1)C(=O)O)[C@@H](C)O [Peptide 1553.04]
pIC50 [1]: 7.24 | pIC50 [2]: 6.29 | pIC50 [3]: < 4.70 | pIC50 [4]: 7.17

CC[C@H](C)[C@H](N)C(=O)N[C@@H](CO)C(=O)N[C@@H](CCC(=O)O)C(=O)N[C@@H](Cc1ccc(O)cc1)C(=O)N[C@@H](CCCNC(=N)N)C(=O)N[C@@H](Cc1c[nH]cn1)C(=O)N[C@@H](Cc1ccc(O)cc1)C(=O)N[C@@H](CS)C(=O)N[C@@H](Cc1ccc(O)cc1)C(=O)O [Peptide 1571.27]
pIC50 [1]: 7.42 | pIC50 [2]: < 4.70 | pIC50 [3]: 6.58 | pIC50 [4]: 7.21

ALREEEEGV
binding to HLA-A2.1 (column 3; no allele head shown for these rows) [5]: 0.0056 | binding to HLA-A24 (column 6; no allele head shown for these rows) [6]: 0 | A2 Bind. [7]: 0.0210

ASDVTACPYNY [Peptide 9012.0176]
pIC50 [1]: 7.74 | pIC50 [2]: 5.23 | pIC50 [3]: 5.61 | pIC50 [4]: 6.69

ATCVSHRGLY [Peptide 1580.22]
pIC50 [2]: 6.31 | pIC50 [3]: 5.38

ATDVSHRGLY [Peptide 1593.10]
pIC50 [1]: 7.59 | pIC50 [2]: 7.74 | pIC50 [3]: 5.79 | pIC50 [4]: 7.82

ATTDLTIVY [Peptide 1549.51]
pIC50 [2]: 6.79 | pIC50 [4]: 6.96

CILESLFRA
binding to HLA-A2.1 (column 3; no allele head shown for these rows) [5]: 0.073 | binding to HLA-A24 (column 6; no allele head shown for these rows) [6]: 0 | A2 Bind. [7]: 0.0460

CQDKILTHY [Peptide 86.0141]
pIC50 [1]: 6.04 | pIC50 [2]: 5.05 | pIC50 [4]: 6.73

CTDKILEHY [Peptide 1593.14]
pIC50 [1]: 6.96 | pIC50 [2]: < 4.70 | pIC50 [3]: < 4.70

CTSASNPSPQY [Peptide 9012.0170]
pIC50 [1]: 6.27 | pIC50 [2]: 6.26 | pIC50 [3]: < 4.70 | pIC50 [4]: 6.32

DSDQILVGY [Peptide 1593.12]
pIC50 [2]: < 4.70 | pIC50 [3]: < 4.70 | pIC50 [4]: < 4.70

DSVQILVGY [Peptide 86.0147]
pIC50 [1]: 5.71 | pIC50 [2]: 8.55

DSVSSTCRY [Peptide 86.0156]
pIC50 [1]: 5.51 | pIC50 [2]: 7.92 | pIC50 [3]: < 4.70 | pIC50 [4]: 6.00

ETDEEITGYLY [Peptide 9012.0180]
pIC50 [1]: 8.19 | pIC50 [2]: 7.57 | pIC50 [3]: 6.56

ETDLDMLRHLY [Peptide 9012.0172]
pIC50 [1]: 8.02 | pIC50 [2]: 8.36 | pIC50 [3]: 5.82 | pIC50 [4]: 8.00

EVDYVGLYY [Peptide 1580.33]
pIC50 [1]: 8.44 | pIC50 [2]: 6.79 | pIC50 [3]: 8.35 | pIC50 [4]: < 4.70

FLWGPRALA
binding to HLA-A2.1 (column 3; no allele head shown for these rows) [5]: 0.042 and 0.027 | binding to HLA-A24 (column 6; no allele head shown for these rows) [6]: 0 | A2 [7]: 0.0420 | A2 Bind. [7]: 0.0420

FTSMPNPEGRY [Peptide 9012.0174]
pIC50 [1]: 8.00 | pIC50 [2]: 8.55 | pIC50 [3]: 6.77 | pIC50 [4]: 6.98

GTDQATPGPAY [Peptide 9012.0160]
pIC50 [2]: 5.41 | pIC50 [4]: 6.63

HTASNPPAQY [Peptide 9012.0142]
pIC50 [2]: 9.27 | pIC50 [3]: 7.68 | pIC50 [4]: 8.74

ISDSYTYY [Peptide 9012.0102]
pIC50 [2]: 5.07 | pIC50 [3]: 5.70 | pIC50 [4]: 5.04

ISDYRHYCY [Peptide 1571.26]
pIC50 [1]: 8.03 | pIC50 [2]: < 4.70 | pIC50 [3]: 8.00

ITDNNNGTY [Peptide 9012.0120]
pIC50 [1]: 7.49 | pIC50 [2]: 6.34 | pIC50 [3]: 4.81 | pIC50 [4]: 7.68

ITSPPDSSY [Peptide 9012.0118]
pIC50 [1]: 5.77 | pIC50 [2]: 6.34 | pIC50 [3]: 4.78 | pIC50 [4]: 8.06

IVEGQVDYY [Peptide 1580.29]
pIC50 [1]: 6.73 | pIC50 [2]: < 4.70 | pIC50 [3]: < 4.70

KMVELVHFL
A2.1 [5]: 0.16 | binding to HLA-A2.1 (column 3; no allele head shown for these rows) [5]: 0.13 | binding to HLA-A24 (column 6; no allele head shown for these rows) [6]: 0.0043 | A2 Bind. [7]: 0.1600

KMVELVHFLL
binding to HLA-A2.1 (column 3; no allele head shown for these rows) [5]: 0.071 | binding to HLA-A24 (column 6; no allele head shown for these rows) [6]: 0.0008 | A2 [7]: 0.2200 | A2 Bind. [7]: 0.1100

KSAIVTLTY [Peptide 1580.20]
pIC50 [1]: 8.04 | pIC50 [2]: < 4.70 | pIC50 [4]: 8.24

KTDILTVTY [Peptide 1593.11]
pIC50 [2]: < 4.70 | pIC50 [3]: < 4.70 | pIC50 [4]: 6.04

KTGILTVTY [Peptide 86.0146]
pIC50 [1]: 6.07 | pIC50 [2]: < 4.70 | pIC50 [3]: 5.47 | pIC50 [4]: 7.70

KVADLVGFLL
binding to HLA-A2.1 (column 3; no allele head shown for these rows) [5]: 0.041 | binding to HLA-A24 (column 6; no allele head shown for these rows) [6]: 0.0070 | A2 Bind. [7]: 0.0560

KVLEYVIKV
binding to HLA-A2.1 (column 3; no allele head shown for these rows) [5]: 0.095 | binding to HLA-A24 (column 6; no allele head shown for these rows) [6]: 0 | A2 Bind. [7]: 0.0900

LQDKIIDHY [Peptide 1580.21]
pIC50 [2]: < 4.70 | pIC50 [3]: < 4.70 | pIC50 [4]: 5.56

LQDKILDHY [Peptide 1580.27]
pIC50 [1]: 7.18 | pIC50 [2]: 5.13 | pIC50 [3]: < 4.70 | pIC50 [4]: 6.03

LSDALEIPY [Peptide 1549.41]
pIC50 [1]: 7.92 | pIC50 [2]: 6.20 | pIC50 [3]: 5.80 | pIC50 [4]: 5.06

LSDTRNDVGPY [Peptide 9012.0164]
pIC50 [1]: 7.85 | pIC50 [2]: 6.23 | pIC50 [3]: 5.01 | pIC50 [4]: 6.82

LSSALEIPY [Peptide 1549.01]
pIC50 [1]: 7.60 | pIC50 [2]: 5.39 | pIC50 [4]: 7.08

LTDKIIDHY [Peptide 1593.09]
pIC50 [2]: < 4.70 | pIC50 [3]: < 4.70 | pIC50 [4]: 5.17

LTDKILDHY [Peptide 1593.16]
pIC50 [1]: 8.51 | pIC50 [2]: 6.09 | pIC50 [3]: 5.35

LTQRNPQLCY [Peptide 9012.0151]
pIC50 [1]: 8.16 | pIC50 [2]: 7.68 | pIC50 [4]: 8.15

LTSALEIPY [Peptide 1549.40]
pIC50 [1]: 7.24 | pIC50 [2]: 6.45 | pIC50 [4]: 6.79

LVLGTLEEV
binding to HLA-A2.1 (column 3; no allele head shown for these rows) [5]: 0.032 | binding to HLA-A24 (column 6; no allele head shown for these rows) [6]: 0.0003 | A2 [7]: 0.0320 | A2 Bind. [7]: 0.0320 | A2.1 relative binding (ratio of binding of test peptide relative to standard peptide) [7]: 0.032

MTETLNNTEY [Peptide 1593.15]
pIC50 [1]: 7.11 | pIC50 [2]: 5.79 | pIC50 [3]: 6.33

NTGILTVTY [Peptide 86.0152]
pIC50 [2]: 5.50 | pIC50 [3]: 5.85 | pIC50 [4]: 5.06

QAEPDTSNY [Peptide 1549.03]
pIC50 [1]: 6.50 | pIC50 [2]: < 4.70 | pIC50 [3]: < 4.70 | pIC50 [4]: 5.00

QTEPDTSNY [Peptide 1549.44]
pIC50 [2]: 5.30 | pIC50 [3]: < 4.70

QVDYYGLYY [Peptide 1580.19]
pIC50 [1]: 8.47 | pIC50 [2]: 6.11 | pIC50 [3]: 7.16 | pIC50 [4]: 5.94

RALAETSYV
binding to HLA-A2.1 (column 3; no allele head shown for these rows) [5]: 0.014 | binding to HLA-A24 (column 6; no allele head shown for these rows) [6]: 0 | A2 [7]: 0.0100 | A2 Bind. [7]: 0.0100

RTDGNRQIIGY [Peptide 9012.0158]
pIC50 [1]: 6.85 | pIC50 [2]: < 4.70 | pIC50 [3]: < 4.70 | pIC50 [4]: 7.02

RTDPVTLDVLY [Peptide 9012.0168]
pIC50 [1]: 8.17 | pIC50 [2]: 5.60 | pIC50 [3]: 5.88 | pIC50 [4]: 8.00

STDLRDHIDY [Peptide 1580.18]
pIC50 [1]: 7.60 | pIC50 [2]: 5.02 | pIC50 [3]: < 4.70

TTEPEAQNTTY [Peptide 9012.0166]
pIC50 [1]: 8.68 | pIC50 [2]: 6.28 | pIC50 [3]: 5.88

TTSPLNTSY [Peptide 9012.0116]
pIC50 [2]: 8.59 | pIC50 [4]: 7.92

TTSPSYTY [Peptide 9012.0100]
pIC50 [2]: 5.46 | pIC50 [3]: 6.67 | pIC50 [4]: 6.49

VMIAMEGGHA
binding to HLA-A2.1 (column 3; no allele head shown for these rows) [5]: 0.0023 | binding to HLA-A24 (column 6; no allele head shown for these rows) [6]: 0 | A2 Bind. [7]: 0.0360

VQDKILDIY [Peptide 1580.32]
pIC50 [2]: < 4.70 | pIC50 [3]: < 4.70 | pIC50 [4]: 5.42

VSEFRWYRY [Peptide 1549.02]
pIC50 [1]: 7.48 | pIC50 [2]: < 4.70 | pIC50 [3]: 5.82

VTDSRNTKY [Peptide 1580.30]
pIC50 [1]: 7.60 | pIC50 [2]: < 4.70 | pIC50 [3]: < 4.70

VTQGNLELTY [Peptide 9012.0147]
pIC50 [1]: 7.05 | pIC50 [2]: 5.17 | pIC50 [4]: 7.64

YVIKVSARV
binding to HLA-A2.1 (column 3; no allele head shown for these rows) [5]: 0.018 | binding to HLA-A24 (column 6; no allele head shown for these rows) [6]: 0 | A2 Bind. [7]: 0.0140

— US9340577B2, “HLA binding motifs and peptides and their uses” (priority 1992, dated 2016)
